According to patent US20170369807A1, “Ionic Liquid, Lubricant, and Magnetic Recording Medium” (Dexerials Corporation, priority 2016, published 2017):

Columns and labels:
[1] = in acetonitrile; cited from earlier work
[2] = Measurement of thermal stability (TG/DTA); details: for Weight reduction temperature 5% / Weight reduction temperature 10% / Weight reduction temperature 20%: TG/DTA, 30° C. to 600° C., 10° C./min, air 200 mL/min; for thermal stability (in words): compared with Z-DOL and Z-TETRAOL
[3] = Solubility test to solvents (visual observation); details: ultrasonic waves 5 minutes, left 1 day, visually observed, listed as Example 3A, ammonium
Protocol: To a predetermined amount of Vertrel XF, n-hexane, or ethanol, the ionic liquid was added. Ultrasonic waves were applied to the resultant mixture for 5 minutes, followed by leaving the mixture to stand for 1 day. The solubility was visually observed.
After applying ultrasonic waves to the resultant for 5 minutes, the resultant was left to stand for 1 day. Thereafter, the solubility was visually observed and evaluated based on the following evaluation criteria.
Similarly, after applying ultrasonic waves to the resultant for 5 minutes, the resultant was left to stand for 1 day. Thereafter, the solubility was visually observed and evaluated based on the following evaluation criteria.
Note that, the solubility was visually observed, and it was judged as soluble when it was transparent. Moreover, it was judged as not soluble (insoluble) when it was opaque or insoluble components were observed.

| Compound | pKa [1] | Weight reduction temperature 5% [2] [°C] | Weight reduction temperature 10% [2] [°C] | Weight reduction temperature 20% [2] [°C] | other results |
| --- | --- | --- | --- | --- | --- |
| O=[N+]([O-])O [nitric acid] | 9.4 | – | – | – | – |
| O=S1(=O)NS(=O)(=O)C(F)(F)C(F)(F)C1(F)F [hexafluorocyclopropane-1,3-bis(sulfonyl)imide] | −0.8 | – | – | – | – |
| perfluorocyclopropane sulfoimide | −0.8 | – | – | – | – |
| O=S(=O)(O)C(F)(F)C(F)(F)C(F)(F)C(F)(F)F [nonafluorobutanesulfonic acid] | 0.7 | – | – | – | – |
| nonafluorobutanesulfonic acid-trimethyloctadecyl ammonium [Comp. Ex. 5A] | – | 340.5 | 356.2 | 371.9 | thermal stability (in words) [2]: high |
| CCCCCCCCCCCCCCCCCCN(C)C.O=S(=O)(NS(=O)(=O)C(F)(F)C(F)(F)C(F)(F)C(F)(F)F)C(F)(F)C(F)(F)C(F)(F)C(F)(F)F [Ex. 1A, bis(nonafluorobutanesulfonyl)imide-N,N-dimethyl-octadecyl ammonium] | – | 315.7 | 337.0 | 356.7 | – |
| pentadecafluorooctanoic acid octadecyl ammonium [Comp. Ex. 6A] | – | 206.9 | 215.8 | 223.4 | thermal stability (in words) [2]: lacked thermal stability |
| nonafluorobutanesulfonic acid-N-methyloctadecyl ammonium [Comp. Ex. 4A] | – | 346.8 | 364.0 | 381.1 | thermal stability (in words) [2]: high |
| CCCCCCCCCCCCCCCCCCN.O=S(=O)(NS(=O)(=O)C(F)(F)C(F)(F)C(F)(F)C(F)(F)F)C(F)(F)C(F)(F)C(F)(F)C(F)(F)F [Comp. Ex. 2A, bis(nonafluorobutanesulfonyl)imide-octadecyl ammonium] | – | 311.8 | 329.8 | 348.0 | – |
| O=S(=O)(NS(=O)(=O)C(F)(F)C(F)(F)C(F)(F)C(F)(F)F)C(F)(F)C(F)(F)C(F)(F)C(F)(F)F [bis(nonafluorobutanesulfonyl)imide] | 0.0 | – | – | – | – |
| F[B-](F)(F)F.[H+] [tetrafluoroboric acid] | 1.8 | – | – | – | – |
| CCCCCCCCCCCCN(CCCCCCCCCCCC)CCCCCCCCCCCC [Ex. 3A, trifluoromethanesulfonic acid-N,N,N-tridodecyl ammonium] | – | – | – | – | Solubility Fluorine-based solvent ([3]; Vertrel XF [CF3(CHF)2CF2CF3], 25° C.): ≥ 0.2 % by mass; Solubility Ethanol ([3]; ethanol): ≥ 0.5 % by mass; Solubility n-Hexane ([3]; n-hexane, 25° C.): ≥ 0.5 % by mass; thermal stability improved compared with Z-DOL ([2]; compared with Z-DOL (Comparative Example 7C)): ≥ 120 °C; thermal stability improved compared with Z-TETRAOL ([2]; compared with Z-TETRAOL (Comparative Example 8C)): ≥ 45 °C |
| O=C(O)C(F)(F)C(F)(F)C(F)(F)C(F)(F)C(F)(F)C(F)(F)C(F)(F)F [pentadecafluorooctanoic acid] | 12.7 | – | – | – | – |
| bis(nonafluorobutanesulfonyl)imide-N,N-dimethyl-dodecyl ammonium [Ex. 2A] | – | 308.5 | 331.5 | 353.4 | – |
| O=S(=O)(O)C(F)(F)F [trifluoromethanesulfonic acid] | 0.7 | – | – | – | – |
| nonafluorobutanesulfonic acid-octadecyl ammonium [Comp. Ex. 1A] | – | 338.8 | 355.2 | 370.4 | thermal stability (in words) [2]: high |
| CCCCCCCCCCCCCCCCCCN.O=S1(=O)NS(=O)(=O)C(F)(F)C(F)(F)C1(F)F [Comp. Ex. 3A, hexafluorocyclopropane-1,3-bis(sulfonyl)imide-octadecyl ammonium] | – | 329.6 | 347.0 | 365.1 | – |
